What was measured:
Human primary T cells [1] = assay: T cell activation: CD69 surface expression by flow cytometry; assay type: cell-based; conditions: fold over anti-CD3 stimulated background normalized to Compound 141A; for CD69 1 nM: 1 nM compound; for CD69 10 nM: 10 nM compound; for CD69 100 nM: 100 nM compound
In short: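 Negatively selected human primary T cells (1×10^5/well, XVivo-15) were captured on plates coated with 10 μg/mL anti-CD3 (OKT3). They were exposed to serially diluted compounds in duplicate for 48 h at 37° C. CD69 was read by flow cytometry as fold over anti-CD3-only background, normalized to Compound 141A and binned into ranges.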

Human primary T cells [2] = assay: T cell activation: secreted IL-2; assay type: cell-based; conditions: 48 hours, fold over background normalized to Compound 141A; for IL-2 1 nM: 1 nM compound; for IL-2 10 nM: 10 nM compound; for IL-2 100 nM: 100 nM compound
In short: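 Negatively selected human primary T cells on plate-bound anti-CD3 (OKT3) in serum-free medium, treated 48 h at 37° C. with serial compound dilutions in duplicate. Secreted IL-2 by bead-based cytometric assay, expressed as fold over anti-CD3/CD28 background normalized to a reference compound, then binned into ranges.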

Human primary T cells [3] = assay: T cell activation: secreted IFN-y; assay type: cell-based; conditions: 48 hours, fold over background normalized to Compound 141A; for IFN-y 1 nM: 1 nM compound; for IFN-y 10 nM: 10 nM compound; for IFN-y 100 nM: 100 nM compound
In short: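 Negatively selected primary human T cells (1×10^5/well, serum-free XVivo-15) on plates coated with 10 μg/mL anti-CD3 were exposed to serial compound dilutions for 48 h at 37 °C. Secreted IFN-γ was measured by cytometric bead array and expressed as fold over anti-CD3/CD28 background, normalized to a reference compound and binned into ranges A–D.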

[4] = target: Cbl-b (36-427 aa truncated form, N-terminus Avi-tag) (Homo sapiens (Human), UniProt Q13191); assay: Cbl-b binding: TR-FRET displacement of BODIPY-FL probe
Cbl-b (36-427 aa truncated form, N-terminus Avi-tag), sequence (Q13191 36-427): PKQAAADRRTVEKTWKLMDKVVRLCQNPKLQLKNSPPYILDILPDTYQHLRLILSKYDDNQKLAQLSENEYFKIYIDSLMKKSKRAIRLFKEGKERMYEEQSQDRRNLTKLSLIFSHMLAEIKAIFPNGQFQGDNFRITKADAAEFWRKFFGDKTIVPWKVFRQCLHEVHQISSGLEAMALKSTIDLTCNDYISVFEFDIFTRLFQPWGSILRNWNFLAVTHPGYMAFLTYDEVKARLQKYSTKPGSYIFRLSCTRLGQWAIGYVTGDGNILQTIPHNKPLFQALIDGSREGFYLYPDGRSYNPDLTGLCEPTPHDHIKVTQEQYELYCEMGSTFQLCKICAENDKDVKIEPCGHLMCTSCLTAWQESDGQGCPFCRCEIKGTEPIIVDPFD
In short: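 Avi-tagged Cbl-b 36-427 preincubated 1 h at RT with streptavidin-terbium in HEPES pH 7.5/NaCl/Triton/BSA/TCEP buffer, then 1 uM BODIPY-FL inhibitor probe plus compound added for 1 h. Probe displacement read by TR-FRET; IC50 fitted.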

Row | SMILES | CD69 1 nM (Human primary T cells [1]) | CD69 10 nM (Human primary T cells [1]) | CD69 100 nM (Human primary T cells [1]) | IL-2 1 nM (Human primary T cells [2]) | IL-2 10 nM (Human primary T cells [2]) | IL-2 100 nM (Human primary T cells [2]) | IFN-y 1 nM (Human primary T cells [3]) | IFN-y 10 nM (Human primary T cells [3]) | IFN-y 100 nM (Human primary T cells [3]) | IC50 [4] [nM]
1 | CCSc1cc(C2(Cc3nncn3C)COC2)cc(N2Cc3c(C=O)cc(CN4CCC[C@H](C)C4)cc3C2=O)n1 [Compound 169, 2-[6-(ethylsulfanyl)-4-{3-[(4-methyl-1,2,4-triazol-3-yl)methyl]oxetan-3-yl}pyridin-2-yl]-6-{[(3S)-3-methylpiperidin-1-yl]methyl}-1-oxo-3H-isoindole-4-carbaldehyde] | C (values between 0.30 and 0.60: range “C”) | C (values between 0.30 and 0.60: range “C”) | C (values between 0.30 and 0.60: range “C”) | C (values between 0.10 and 0.30: range “C”) | C (values between 0.10 and 0.30: range “C”) | C (values between 0.10 and 0.30: range “C”) | C (values between 0.10 and 0.30: range “C”) | B (values between 0.31 and 1.00: range “B;”) | B (values between 0.31 and 1.00: range “B;”) | 5.01 to 20
2 | CSc1cc(C(CO)N2CCC[C@H](C)C2)cc2c1CN(c1cccc([C@]3(c4nncn4C)C[C@H](C)C3)c1)C2=O (stereo partly drawn) [Compound 170, 6-{2-hydroxy-1-[(3S)-3-methylpiperidin-1-yl]ethyl}-4-(methylsulfanyl)-2-{3-[(1r,3s)-3-methyl-1-(4-methyl-1,2,4-triazol-3-yl)cyclobutyl]phenyl}-3H-isoindol-1-one] | C (values between 0.30 and 0.60: range “C”) | C (values between 0.30 and 0.60: range “C”) | A (values between 0.81 and 1.10: range “A”) | C (values between 0.10 and 0.30: range “C”) | C (values between 0.10 and 0.30: range “C”) | B (values between 0.31 and 0.79: range “B”) | B (values between 0.31 and 1.00: range “B;”) | B (values between 0.31 and 1.00: range “B;”) | B (values between 0.31 and 1.00: range “B;”) | 1 to 5
3 | CCNc1cc(C2(c3nncn3C)CC(C)C2)cc(N2Cc3c(cc(CN4CCC[C@H](C)C4)cc3C(F)(F)F)C2=O)n1 (stereo partly drawn) [Compound 171, 2-[6-(ethylamino)-4-[(1r,3s)-3-methyl-1-(4-methyl-1,2,4-triazol-3-yl)cyclobutyl]pyridin-2-yl]-6-{[(3 S)-3-methylpiperidin-1-yl]methyl}-4-(trifluoromethyl)-3H-isoindol-1-one] | C (values between 0.30 and 0.60: range “C”) | C (values between 0.30 and 0.60: range “C”) | X (fold over background values between 1.11 and 1.6: range “X”) | C (values between 0.10 and 0.30: range “C”) | C (values between 0.10 and 0.30: range “C”) | B (values between 0.31 and 0.79: range “B”) | B (values between 0.31 and 1.00: range “B;”) | B (values between 0.31 and 1.00: range “B;”) | A (fold over background between 1.10 and 2.00: range “A”) | 100 to 1000

Source: patent US20250304563A1, “ACTIVATORS OF EFFECTOR T CELLS” (Orum Therapeutics, Inc., priority 2022, published 2025)
